Here are results for one compound from patent US9469630B2, “Sustained-release formulation for injection” (SUMITOMO DAINIPPON PHARMA CO., LTD., priority 2010, dated 2016).

A short description of the data set: Solubility in water. Type of data set: physicochemical.

As to `Cl.O=C1[C@@H]2[C@H]3CC[C@H](C3)[C@@H]2C(=O)N1C[C@@H]1CCCC[C@H]1CN1CCN(c2nsc3ccccc23)CC1` [Compound 1, N-[4-[4-(1,2-benzisothiazol-3-yl)-1-piperazinyl]-(2R,3R)-2,3-tetramethylene-butyl]-(1′R,2′S,3′R,4′S)-2,3-bicyclo[2,2,1]heptanedicarboximide hydrochloride], the solubility in water entry is listed as “low”.
